The values that follow come from the supplement of paper PMC4649846.

Where only a bound is given, the exact number is not on record here.

The test system of experiment [1] is MDA-MB-231. The settings on record: incubation time: 72 h. As to the method: (§1)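 MDA-MB-231 breast cancer cells were transfected with siBRCA1 or non-targeting siControl, then seeded 24 h later at 4000 cells/well in 384-well plates holding 198 drugs at 5 concentrations. Viability was read by CellTiter-Blue after 72 h at 37 °C. Dose-response curves were fitted in Dotmatics to give IC50 and a drug sensitivity score (DSS: area under the curve relative to the area between the 10% threshold and 100% inhibition, normalised by the log of the top response). The dose range is not stated. IC50 values of 8333.3 or 4166.7 nM mark no response (top dose), and 0.8333 nM is the lower limit.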

Experiment [2] deals with MDA-MB-231. The experiment in a line: drug sensitivity score (DSS); higher = more sensitive; extreme values may be limits of the assay. The settings on record: incubation time: 72 h. As to the method:
as §1

[3] abbreviates: siRNA: siControl (non-targeting).

With `CC(=O)Nc1cccc(-n2c(=O)n(C3CC3)c(=O)c3c(Nc4ccc(I)cc4F)n(C)c(=O)c(C)c32)c1`, the “IC50 of cell viability” value with MDA-MB-231 [1] (siRNA: siBRCA1) was 2.46 nM; in the experiment on MDA-MB-231 [1] (setting [3]), 2.21 nM. Further, the drug sensitivity score in the experiment on MDA-MB-231 [2] (siRNA: siBRCA1) amounted to 22; in the experiment with MDA-MB-231 [2] (setting [3]), 22.5.

Turning to `CC(=O)c1c(C)c2cnc(Nc3ccc(N4CCNCC4)cn3)nc2n(C2CCCC2)c1=O`, the results for the “IC50 of cell viability” value in the experiment with MDA-MB-231 [1] (siRNA: siBRCA1) and in the experiment on MDA-MB-231 [1] (setting [3]) were 125 nM and 248 nM, respectively. The drug sensitivity score in the experiment with MDA-MB-231 [2] (siRNA: siBRCA1) was 6.11; with MDA-MB-231 [2] (setting [3]), 9.43.

In the case of `CN(C)C[C@@H]1CCn2cc(c3ccccc32)C2=C(C(=O)NC2=O)c2cn(c3ccccc23)CCO1`, the results for the “IC50 of cell viability” value with MDA-MB-231 [1] (siRNA: siBRCA1) and in the experiment on MDA-MB-231 [1] (setting [3]) were 2720 nM and 3770 nM, respectively. Besides, the results for the drug sensitivity score in the experiment with MDA-MB-231 [2] (siRNA: siBRCA1) and in the experiment with MDA-MB-231 [2] (setting [3]) were 5.43 and 4.41, respectively.

Regarding `CN1CCC(COc2cnc(-c3cccc(Cn4nc(-c5cccc(C#N)c5)ccc4=O)c3)nc2)CC1`, the “IC50 of cell viability” value in the experiment on MDA-MB-231 [1] (siRNA: siBRCA1) came out at 3770 nM; in the experiment on MDA-MB-231 [1] (setting [3]), 4020 nM. In addition, the values for the drug sensitivity score in the experiment with MDA-MB-231 [2] (siRNA: siBRCA1) and in the experiment with MDA-MB-231 [2] (setting [3]) were 3.92 and 3.58, respectively.

Turning to `CNCc1ccc(-c2[nH]c3cc(F)cc4c3c2CCNC4=O)cc1`, the “IC50 of cell viability” value with MDA-MB-231 [1] (siRNA: siBRCA1) and in the experiment with MDA-MB-231 [1] (setting [3]) was greater than 4170 nM in each case. Besides, the drug sensitivity score with MDA-MB-231 [2] (siRNA: siBRCA1) and in the experiment on MDA-MB-231 [2] (setting [3]) was 0 in each case.

With `COc1ccc(-c2cc3c(C)nc(N)nc3n([C@H]3CC[C@H](OCCO)CC3)c2=O)cn1`, the figures for the “IC50 of cell viability” value in the experiment with MDA-MB-231 [1] (siRNA: siBRCA1) and in the experiment on MDA-MB-231 [1] (setting [3]) were 125 nM and 129 nM, respectively. In addition, the figures for the drug sensitivity score with MDA-MB-231 [2] (siRNA: siBRCA1) and in the experiment with MDA-MB-231 [2] (setting [3]) were 18.9 and 18.6, respectively.

As to `C[C@@]1(C(=O)Nc2ccc(F)nc2)CCCN1c1nc(Nc2cc(C3CC3)n[nH]2)c2cccn2n1`, the “IC50 of cell viability” value was greater than 4170 nM in the experiment with MDA-MB-231 [1] (siRNA: siBRCA1) and 1190 nM in the experiment with MDA-MB-231 [1] (setting [3]). For the same compound, the values for the drug sensitivity score in the experiment on MDA-MB-231 [2] (siRNA: siBRCA1) and with MDA-MB-231 [2] (setting [3]) were 3.5 and 7.43, respectively.

Consider `Cc1cc(Nc2cc(CN3CCOCC3)c3nc(C)c(Cc4ccc(Cl)cc4F)n3n2)n[nH]1`, for which the figures for the “IC50 of cell viability” value in the experiment with MDA-MB-231 [1] (siRNA: siBRCA1) and in the experiment on MDA-MB-231 [1] (setting [3]) were 1380 nM and greater than 4170 nM, respectively. The drug sensitivity score with MDA-MB-231 [2] (siRNA: siBRCA1) stood at 6.15; with MDA-MB-231 [2] (setting [3]) it was 3.18.

For `O=C(NC[C@H](O)CO)c1ccncc1Nc1ccc(I)cc1F`, the “IC50 of cell viability” value in the experiment with MDA-MB-231 [1] (siRNA: siBRCA1) worked out at 132 nM; in the experiment on MDA-MB-231 [1] (setting [3]), 50 nM. For the same compound, the drug sensitivity score in the experiment with MDA-MB-231 [2] (siRNA: siBRCA1) came to 16; in the experiment on MDA-MB-231 [2] (setting [3]) it was 17.4.

In the case of `CC1CCN(C(=O)CC#N)CC1N(C)c1ncnc2[nH]ccc12` (stereo in doubt) [Tasocitinib], the “IC50 of cell viability” value in the experiment with MDA-MB-231 [1] (siRNA: siBRCA1) and in the experiment on MDA-MB-231 [1] (setting [3]) was greater than 4170 nM throughout. In addition, the drug sensitivity score with MDA-MB-231 [2] (siRNA: siBRCA1) and with MDA-MB-231 [2] (setting [3]) was 0 each time.

Take `COc1cc2c(cc1O)CC[C@@H]1[C@@H]2CC[C@]2(C)[C@@H](O)CC[C@@H]12` [2-methoxyestradiol]: the “IC50 of cell viability” value was 1230 nM with MDA-MB-231 [1] (siRNA: siBRCA1) and 794 nM in the experiment with MDA-MB-231 [1] (setting [3]). The drug sensitivity score with MDA-MB-231 [2] (siRNA: siBRCA1) came to 6.82; in the experiment on MDA-MB-231 [2] (setting [3]) it was 8.29.

Take `COc1ccc(S(=O)(=O)Nc2cccnc2Nc2ccc(O)cc2)cc1` [ABT-751]: the entries for the “IC50 of cell viability” value in the experiment with MDA-MB-231 [1] (siRNA: siBRCA1) and in the experiment on MDA-MB-231 [1] (setting [3]) were 253 nM and 308 nM, respectively. Besides, the drug sensitivity score in the experiment with MDA-MB-231 [2] (siRNA: siBRCA1) came out at 13.9; in the experiment on MDA-MB-231 [2] (setting [3]), 13.5.

`CC(C)(C)c1cc(NC(=O)Nc2ccc(-c3cn4c(n3)sc3cc(OCCN5CCOCC5)ccc34)cc2)no1` [AC220]: the “IC50 of cell viability” value with MDA-MB-231 [1] (siRNA: siBRCA1) and in the experiment on MDA-MB-231 [1] (setting [3]) was greater than 4170 nM each time. For the same compound, the drug sensitivity score in the experiment with MDA-MB-231 [2] (siRNA: siBRCA1) stood at 0; in the experiment on MDA-MB-231 [2] (setting [3]), 0.0185.

As for `O=C(Nc1c[nH]nc1-c1nc2ccc(CN3CCOCC3)cc2[nH]1)NC1CC1` [AT9283], the “IC50 of cell viability” value with MDA-MB-231 [1] (siRNA: siBRCA1) was 267 nM; in the experiment with MDA-MB-231 [1] (setting [3]) it was 173 nM. Also, the drug sensitivity score in the experiment with MDA-MB-231 [2] (siRNA: siBRCA1) turned out to be 16.5; in the experiment with MDA-MB-231 [2] (setting [3]) it was 18.6.

With `COc1cc(OC2CCN(C)CC2)ccc1Nc1ncc2c(n1)n(C1CCCC1)c(=O)n2C` [AZ 3146], the “IC50 of cell viability” value in the experiment on MDA-MB-231 [1] (siRNA: siBRCA1) and in the experiment with MDA-MB-231 [1] (setting [3]) was greater than 4170 nM each time. Besides, the drug sensitivity score with MDA-MB-231 [2] (siRNA: siBRCA1) and with MDA-MB-231 [2] (setting [3]) was 0 in each case.
